Assay [1] concerns the target T1, integrin αvβ3 (Homo sapiens, UniProt P05106+P06756).
T1 construct: purchased R&D Systems
The assay is described as follows: Competitive binding ELISA, purified integrin αvβ3. As to conditions: competitive ELISA vs biotinylated vitronectin, n = 3. On the procedure: (§1) Competitive binding ELISAs were performed to evaluate the binding affinity of each peptide relative to each integrin’s biotinylated natural ligand (transforming growth factor beta 1 latency-associated peptide or TGFβ1-LAP (G&P Biosciences, Santa Clara, CA, USA) for integrins αvβ6 and αvβ8, fibronectin (Thermo Fisher, Waltham, MA, USA) for integrin αvβ1, and vitronectin (Thermo Fisher) for integrins αvβ3 and αvβ5), as previously described. In brief, anti-αv antibody (P2W7, 5 μg/mL, Abcam) was plated (50 μL/well) at 37 °C for 1 h, washed with PBS (3×), and blocked overnight with blocking buffer (300 μL/well, 5% bovine serum albumin (BSA), 1% Tween 20, in PBS), followed by washing with PBS (3×). […] The plate was incubated at 37 °C for 1 h, then washed with wash buffer (3×). A 1:1000 dilution of ExtrAvidin Horseradish Peroxidase (HRP) was added to each well (50 μL/well), incubated at 37 °C for 1 h, and then washed with wash buffer (3×). The ExtrAvidin HRP was detected with 3,3′,5,5′-tetramethylbenzidine (50 μL/well, Promega, Madison, WI, USA) for 10–15 min at room temperature. The reaction was stopped by adding 1N H2SO4 (50 μL/well) and the absorbance was measured in a Multiscan Ascent plate reader (Thermo Fisher) at 450 nm. Half-maximal inhibitory concentration (IC50) of peptides was determined fitting to sigmoidal dose-response model in GraphPad Prism 5.0 (San Diego, CA, USA).
A general note: In an ELISA, binding on a coated surface is turned into a signal by an enzyme label.

In assay [2] the target is T2, integrin αvβ6 (Homo sapiens, UniProt P06756+P18564).
T2 construct: purchased R&D Systems
The assay is described as follows: Competitive binding ELISA, purified integrin αvβ6. As for the experimental part:
as §1

Assay [3] concerns the target T3, integrin αvβ1 (Homo sapiens, UniProt P05556+P06756).
T3 construct: purchased R&D Systems
The assay is described as follows: Competitive binding ELISA, purified integrin αvβ1. As to conditions: competitive ELISA vs biotinylated fibronectin, n = 3. As for the experimental part: as §1

By IC50 is commonly meant the concentration needed to halve the response being measured.

Like-named read-outs stand apart in the source and are kept apart here. Peptide text beside a SMILES is read from it. * marks the point of attachment. Benzoyl(4-F) = O=C(c1ccc(F)cc1)* Bounds are passed on as bounds.

`CC[C@H](C)[C@H](NC(=O)CN)C(=O)N[C@@H](CC(=O)O)C(=O)N[C@@H](CC(C)C)C(=O)N[C@H](C(=O)N[C@@H](CO)C(=O)N[C@@H](CC(C)C)C(=O)N[C@H](C(=O)N[C@@H](CCCCNC(=O)c1ccc(F)cc1)C(N)=O)[C@@H](C)O)[C@@H](C)O` [compound 4] (H-GIDLTSLTK(Benzoyl(4-F))-NH2; N-terminus assumed): the 50% inhibitory concentration (IC50) in assay [1] was greater than 100 µM; in assay [2] (competitive ELISA vs biotinylated TGFβ1-LAP, n = 3; read-out: IC50 (μM) αvβ6) it was greater than 100 µM.

In the case of `CC(C)C[C@H](NC(=O)[C@H](CCC(=O)O)NC(=O)[C@H](CCCNC(=N)N)NC(=O)[C@H](CC(C)C)NC(=O)[C@H](CC(=O)O)NC(=O)CNC(=O)[C@@H](N)CCCNC(=N)N)C(=O)N[C@@H](C)C(=O)N[C@@H](CCCCNC(=O)c1ccc(F)cc1)C(N)=O` [compound 5] (H-RGDLRELAK(Benzoyl(4-F))-NH2; N-terminus assumed), the IC50 in assay [3] amounted to 1.9 ± 0.3 µM; in assay [2] (read-out: IC50 (μM) αvβ6; competitive ELISA vs biotinylated TGFβ1-LAP, n = 3), 0.89 ± 0.14 µM. Besides, in assay [2] (from ELISA IC50 values), the “selectivity ratio for integrin αvβ6 compared to αvβ5” value is listed as > 100 :1.

For the origin of these results see PMC6359284, “Identification, Characterization, and Optimization of Integrin αvβ6-Targeting Peptides from a One-Bead One-Compound (OBOC) Library: Towards the Development of Positron Emission Tomography (PET) Imaging Agents” (Molecules, 2019).
